For test [1], the system named is hepatic glucose production. Conditions: seven day treatment, patients with type 2 diabetes, versus placebo group; cited from earlier work.
Test [2] concerns the target T1, recombinant human 11beta-HSD1 (Homo sapiens, UniProt P28845).
T1 construct: made in house; microsomal fraction used as enzyme source
Description: In vitro inhibition of recombinant human 11beta-HSD1, microsomal Scintillation Proximity Assay (SPA). Type of test: biochemical. To be noted: microsomes from HEK 293 EBNA cells, 250 nM [3H]-cortisone, 500 μM NADPH, pH 6.5, room temperature. The protocol:
The in vitro inhibition of recombinant human 11beta-HSD1 was determined as follows.
Cells were grown in DMEM (high glucose) containing MEM non-essential amino acids, L-glutamine, hygromycine B (200 ug/ml), and G418 (200 ug/ml). The cell pellets were homogenized, and the microsomal fraction was obtained by differential centrifugation. 11beta-HSD1 over expressed microsomes were used as the enzyme source for the Scintillation Proximity Assay (SPA). […] The reaction was terminated with the addition of 1 mM 18β-glycerrhentic acid. SPA reagent mixture (YSi anti-rabbit IgG, anti-cortisol antibody in 50 mM Tris, pH 8.0 containing 1% CHAPS and 1% glycerol) was added and the reaction was further incubated at room temperature over night and counted in TopCount.
In the structures set forth in Table 10, the “—O” attached to the carbon adjacent to the nitrogen in the bicyclic core is used to denote an “—OH” group as indicated in Formula I. Similarly, in the structures set forth in Table 10, the “N” adjacent to the carbon atom substituted with ═O in the bicyclic or tricyclic core is used to denote an “NH” moiety as indicated in Formula I-t.

Where two headings read alike, the source gives them in different places.

Hepatic glucose production and IC50 data for 6 compounds are collected here from patent publication US20140128365A1, “PYRIDONE/HYDROXYPYRIDINE 11-BETA HYDROXYSTEROID DEHYDROGENASE TYPE I INHIBITORS” (BRISTOL-MYERS SQUIBB COMPANY, priority 2012, published 2014).

T1 sequence (P28845 whole entry): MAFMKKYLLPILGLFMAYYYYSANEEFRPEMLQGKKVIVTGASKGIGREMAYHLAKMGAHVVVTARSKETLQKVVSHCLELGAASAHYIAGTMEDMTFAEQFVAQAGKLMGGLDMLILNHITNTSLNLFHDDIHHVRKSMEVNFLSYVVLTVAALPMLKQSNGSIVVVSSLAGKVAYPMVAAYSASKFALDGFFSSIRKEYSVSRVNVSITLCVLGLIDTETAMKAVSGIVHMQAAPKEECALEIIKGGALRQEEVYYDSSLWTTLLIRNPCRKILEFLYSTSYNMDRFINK

`CC1(C)[C@@H](OC(=O)CCC(=O)O)CC[C@]2(C)[C@H]3C(=O)C=C4[C@@H]5C[C@@](C)(C(=O)O)CC[C@]5(C)CC[C@@]4(C)[C@]3(C)CC[C@@H]12` [carbenoxolone]: the hepatic glucose production entry in test [1] is reported as “decrease in hepatic glucose production”.
As for `COc1ccc(CSc2nc(O)c(C#N)c3c2CCCC3)cc1` [Example 25], the IC50 in test [2] amounted to 467 nM.
Take “4,7-Dichloro-1-(2-chlorobenzylthio)isoquinolin-3-ol [Example 109]”: in test [2] (read-out: IC50 (concentration of compound required for 50% inhibition of cortisol formation)), the IC50 amounted to 671 nM.
Turning to `N#Cc1c(O)nc(SCc2ccccc2C(=O)O)c2c1CCCC2` [Example 34], in test [2], the IC50 is over 10000 nM.
Still for that read-out and setting: the figure for `COc1cccc(CSc2nc(O)c(C#N)c3c2CCCC3)c1` [Example 17] is 461 nM; for `N#Cc1ccccc1CSc1nc(O)c(C#N)c2ccc(F)cc12` [Example 153] it is 1.45 nM.
